In article PMC7200626, “Nek7 conformational flexibility and inhibitor binding probed through protein engineering of the R-spine” (Biochemical Journal, 2020):

Key:
Nek7^WT = molecular target: T1, Nek7^WT (Homo sapiens, UniProt Q8TDX7); experiment: X-ray co-crystal structure, […] Å; IC50 from LabChip EZ Reader kinase assay; format: biochemical
T1 construct: wild-type Nek7, C-terminal non-cleavable His6-tag

Nek7^SRS = molecular target: T2, Nek7^SRS (Homo sapiens, UniProt Q8TDX7, L180F/L86H/Y97F); experiment: as above; format: biochemical
T2 construct: Nek7 strong R-spine mutant, C-terminal non-cleavable His6-tag
T2 sequence (Q8TDX7 whole entry L86H/Y97F/L180F): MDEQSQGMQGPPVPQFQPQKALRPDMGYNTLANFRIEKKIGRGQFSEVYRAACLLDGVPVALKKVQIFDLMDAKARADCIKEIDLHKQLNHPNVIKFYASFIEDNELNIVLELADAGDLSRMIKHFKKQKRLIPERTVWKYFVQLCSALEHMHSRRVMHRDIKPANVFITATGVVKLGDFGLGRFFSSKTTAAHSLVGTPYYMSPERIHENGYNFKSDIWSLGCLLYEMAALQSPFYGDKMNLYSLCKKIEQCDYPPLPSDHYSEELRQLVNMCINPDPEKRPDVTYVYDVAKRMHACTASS

T1 sequence (Q8TDX7 whole entry): as the sequence (Q8TDX7 whole entry L86H/Y97F/L180F) above, with H86L, F97Y, F180L counted along it

IC50 (Nek7^WT): 79 µM
IC50 (Nek7^SRS): 40.1 µM
Compound: CN(C)CCCNS(=O)(=O)c1cccc(Nc2nc(OCC3CCCCC3)c3nc[nH]c3n2)c1 [compound 51]
